Data set [1] in a line: DRUGMATRIX: Atrial Natriuretic Factor (ANF) radioligand binding (ligand: [125I] ANF (rat)). Format: cell membranes, Cavia porcellus, Dunkin-Hartley, Adrenal gland, Membrane. Particulars: Not Active = under 50% inhibition at 10 µM.
The target in data set [2] is Vascular endothelial growth factor receptor 1 (Homo sapiens, UniProt P17948). Format: cell-based. The note with it: huvec. Note: in other assays of this panel Not Active means under 50% inhibition at 10 µM.
Data set [3] has as its target T1, Vasoactive intestinal polypeptide receptor 1 (Homo sapiens, UniProt P32241). Note: in other assays of this panel Not Active means under 50% inhibition at 10 µM.
T1 sequence (P32241 whole entry): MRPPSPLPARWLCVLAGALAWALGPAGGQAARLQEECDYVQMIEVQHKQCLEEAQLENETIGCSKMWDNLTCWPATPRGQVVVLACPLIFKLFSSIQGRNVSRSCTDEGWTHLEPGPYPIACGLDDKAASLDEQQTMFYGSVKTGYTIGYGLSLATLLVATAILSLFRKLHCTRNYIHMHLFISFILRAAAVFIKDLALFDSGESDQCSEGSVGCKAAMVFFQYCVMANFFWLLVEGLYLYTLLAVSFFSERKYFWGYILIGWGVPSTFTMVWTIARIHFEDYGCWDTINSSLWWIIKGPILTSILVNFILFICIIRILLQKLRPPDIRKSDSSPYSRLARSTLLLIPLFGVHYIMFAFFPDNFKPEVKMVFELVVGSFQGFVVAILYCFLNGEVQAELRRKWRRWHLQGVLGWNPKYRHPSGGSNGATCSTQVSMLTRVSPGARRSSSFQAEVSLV
Format: cell membranes, Membrane. Particulars: ht-29.

Data set [4] is described as follows: DRUGMATRIX: GABAA, Muscimol, Central radioligand binding (ligand: [3H] Muscimol). Format: cell membranes, Rattus norvegicus, Wistar, Brain, Membrane. Particulars: Not Active = under 50% inhibition at 10 µM.
Data set [5] addresses T2, Leukotriene C4 synthase (Cavia porcellus, UniProt A6XA80).
T2 sequence (A6XA80 whole entry): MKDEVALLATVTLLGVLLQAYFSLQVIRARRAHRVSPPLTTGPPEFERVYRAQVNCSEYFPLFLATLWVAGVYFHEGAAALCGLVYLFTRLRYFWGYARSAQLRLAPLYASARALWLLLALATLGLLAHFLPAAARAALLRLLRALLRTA
The format is tissue-based, Lung.

The target of data set [6] is T3, Amine oxidase [flavin-containing] A (Homo sapiens, UniProt P21397).
T3 sequence (P21397 whole entry): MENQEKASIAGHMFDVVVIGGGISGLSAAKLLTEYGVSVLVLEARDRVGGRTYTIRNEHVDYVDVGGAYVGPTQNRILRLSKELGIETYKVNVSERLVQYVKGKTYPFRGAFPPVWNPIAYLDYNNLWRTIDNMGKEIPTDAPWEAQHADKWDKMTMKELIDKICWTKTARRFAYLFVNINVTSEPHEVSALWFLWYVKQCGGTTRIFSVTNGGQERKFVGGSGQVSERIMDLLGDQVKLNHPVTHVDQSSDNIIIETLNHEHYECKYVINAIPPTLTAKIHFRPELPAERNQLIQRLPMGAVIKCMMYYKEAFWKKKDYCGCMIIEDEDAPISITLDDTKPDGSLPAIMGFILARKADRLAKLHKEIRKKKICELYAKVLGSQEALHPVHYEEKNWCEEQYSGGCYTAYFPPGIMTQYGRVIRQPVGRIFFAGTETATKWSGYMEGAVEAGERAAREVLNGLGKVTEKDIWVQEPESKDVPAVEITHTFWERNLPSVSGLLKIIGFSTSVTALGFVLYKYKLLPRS
Briefly: DRUGMATRIX: Monoamine Oxidase MAO-A enzyme inhibition (substrate: Kynuramine). Set-up: species or system BTI-TN-5B1-4. The note with it: bti-tn-5b1-4; Not Active = under 50% inhibition at 10 µM.

The nature of data set [7]: DRUGMATRIX: Nicotinic Acetylcholine radioligand binding (ligand: [125I] Epibatidine). Particulars: imr-32; Not Active = under 50% inhibition at 10 µM. The format is cell membranes, Membrane.
For data set [8], the target named is Mitogen-activated protein kinase 1 (Homo sapiens, UniProt P28482). Kind of data set: DRUGMATRIX: Protein Serine/Threonine Kinase, ERK2 enzyme inhibition (substrate: Myelin Basic Protein). The note with it: Not Active = under 50% inhibition at 10 µM. Set-up: species or system Escherichia coli.
Data set [9] deals with T4, Cytochrome P450 2A6 (Homo sapiens, UniProt P11509).
T4 sequence (P11509 whole entry): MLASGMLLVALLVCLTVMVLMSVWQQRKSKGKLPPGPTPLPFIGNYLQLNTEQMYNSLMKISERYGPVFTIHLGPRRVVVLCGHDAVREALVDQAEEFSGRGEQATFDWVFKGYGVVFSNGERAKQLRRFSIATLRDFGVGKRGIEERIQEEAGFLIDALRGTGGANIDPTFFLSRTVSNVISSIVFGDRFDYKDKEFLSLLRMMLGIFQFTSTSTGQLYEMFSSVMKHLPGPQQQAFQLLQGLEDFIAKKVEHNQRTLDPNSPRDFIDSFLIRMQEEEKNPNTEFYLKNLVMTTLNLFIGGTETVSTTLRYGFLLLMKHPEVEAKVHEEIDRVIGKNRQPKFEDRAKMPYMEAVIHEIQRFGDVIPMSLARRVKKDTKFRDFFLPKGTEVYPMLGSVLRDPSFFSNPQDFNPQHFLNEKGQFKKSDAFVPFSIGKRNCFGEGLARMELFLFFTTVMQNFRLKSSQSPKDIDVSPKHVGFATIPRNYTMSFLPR
The note with it: bti-tn-5b1-4.

Vascular endothelial growth factor receptor 1, sequence (P17948 whole entry): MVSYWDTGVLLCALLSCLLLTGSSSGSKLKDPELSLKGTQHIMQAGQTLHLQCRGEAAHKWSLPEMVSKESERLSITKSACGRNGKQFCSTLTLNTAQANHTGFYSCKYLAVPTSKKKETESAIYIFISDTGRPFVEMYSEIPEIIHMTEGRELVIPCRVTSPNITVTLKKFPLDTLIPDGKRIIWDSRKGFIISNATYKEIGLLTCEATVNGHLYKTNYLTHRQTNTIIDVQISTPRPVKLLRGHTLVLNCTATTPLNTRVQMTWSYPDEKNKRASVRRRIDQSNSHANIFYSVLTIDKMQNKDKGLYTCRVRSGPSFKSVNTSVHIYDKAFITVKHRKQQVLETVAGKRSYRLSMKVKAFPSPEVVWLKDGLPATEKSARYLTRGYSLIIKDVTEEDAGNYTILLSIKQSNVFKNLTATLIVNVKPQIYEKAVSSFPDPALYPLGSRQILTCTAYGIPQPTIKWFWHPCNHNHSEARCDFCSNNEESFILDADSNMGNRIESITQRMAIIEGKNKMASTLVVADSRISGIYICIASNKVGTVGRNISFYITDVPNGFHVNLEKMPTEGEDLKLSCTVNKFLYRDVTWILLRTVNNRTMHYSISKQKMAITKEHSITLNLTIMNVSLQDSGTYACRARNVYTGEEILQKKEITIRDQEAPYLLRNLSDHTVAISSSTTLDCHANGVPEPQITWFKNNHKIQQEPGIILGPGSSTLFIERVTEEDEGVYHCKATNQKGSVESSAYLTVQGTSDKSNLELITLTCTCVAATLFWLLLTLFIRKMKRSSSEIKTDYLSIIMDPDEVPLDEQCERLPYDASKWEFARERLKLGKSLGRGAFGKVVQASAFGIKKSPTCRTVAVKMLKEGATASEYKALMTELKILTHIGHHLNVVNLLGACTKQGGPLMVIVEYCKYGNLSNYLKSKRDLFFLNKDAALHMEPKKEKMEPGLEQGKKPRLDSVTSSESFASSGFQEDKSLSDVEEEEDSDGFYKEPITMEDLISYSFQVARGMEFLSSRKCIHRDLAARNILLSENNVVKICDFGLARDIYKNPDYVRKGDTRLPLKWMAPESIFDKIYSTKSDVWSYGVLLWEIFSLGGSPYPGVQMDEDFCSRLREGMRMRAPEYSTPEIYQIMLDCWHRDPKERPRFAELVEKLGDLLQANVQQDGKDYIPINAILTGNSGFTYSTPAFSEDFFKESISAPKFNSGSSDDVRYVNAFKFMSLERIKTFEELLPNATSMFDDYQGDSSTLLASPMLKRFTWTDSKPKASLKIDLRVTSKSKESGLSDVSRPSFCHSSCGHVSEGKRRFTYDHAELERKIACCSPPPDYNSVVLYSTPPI
Mitogen-activated protein kinase 1, sequence (P28482 whole entry): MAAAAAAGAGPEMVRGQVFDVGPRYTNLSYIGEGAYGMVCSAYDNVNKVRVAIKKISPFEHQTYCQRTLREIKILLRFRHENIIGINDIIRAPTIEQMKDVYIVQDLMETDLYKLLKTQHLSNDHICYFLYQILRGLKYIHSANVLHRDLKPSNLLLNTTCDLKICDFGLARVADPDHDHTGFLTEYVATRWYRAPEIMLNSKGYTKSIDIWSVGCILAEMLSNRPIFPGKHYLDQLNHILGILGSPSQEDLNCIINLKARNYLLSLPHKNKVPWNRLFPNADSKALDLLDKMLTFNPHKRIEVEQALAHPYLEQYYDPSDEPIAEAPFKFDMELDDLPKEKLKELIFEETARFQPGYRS

Take `CSc1ccc(/C=C2/C(C)=C(CC(=O)O)c3cc(F)ccc32)cc1` [SULINDAC SULFIDE]: the IC50 entry in data set [1], in data set [2], in data set [3], in [4], in data set [5] and in [6] was “Not Active” in each case. For the same compound, the figures for the concentration for half-maximal inhibition (IC50) result in data set [7], in data set [8] (read-out: IC50) and in [9] were “Not Active”, 1090 nM and “Not Active”, respectively. The Ki entry in [1], in [4], in [7] and in data set [9] was “Not Active” in each case.
On to `Nc1c2c(nc3ccccc13)CCCC2` [TACRINE], for which the IC50 result in data set [1], in data set [2], in data set [3], in data set [4], in data set [5] and in data set [6] was “Not Active” in each case. For the same compound, the IC50 entry in data set [7], in [8] and in data set [9] was “Not Active” throughout. For the same compound, the Ki result in data set [1], in [4], in [7] and in data set [9] was “Not Active” throughout.
On to `Nc1nc2nc[nH]c2c(=S)[nH]1` [THIOGUANINE], for which the IC50 result in data set [1], in data set [2], in data set [3], in data set [4], in data set [5] and in [6] was “Not Active” throughout. Besides, the half-maximal inhibitory concentration (IC50) entry in data set [7], in data set [8] and in [9] was “Not Active” throughout. In addition, the Ki result in data set [1], in data set [4], in data set [7] and in data set [9] was “Not Active” throughout.
Turning to `Cc1cccc(N(C)C(=S)Oc2ccc3ccccc3c2)c1` [TOLNAFTATE], the IC50 entry in data set [1], in data set [2], in data set [3], in data set [4], in data set [5] and in data set [6] was “Not Active” in each case. The 50% inhibitory concentration (IC50) result in data set [7], in [8] and in data set [9] was “Not Active” in each case. Further, the Ki result in [1], in data set [4], in [7] and in [9] was “Not Active” in each case.
For `NC[C@H]1CC[C@H](C(=O)O)CC1` [TRANEXAMIC ACID], the IC50 result in data set [1], in data set [2], in data set [3], in data set [4], in data set [5] and in [6] was “Not Active” each time. The IC50 entry in data set [7], in data set [8] and in data set [9] was “Not Active” in each case. For the same compound, the Ki result in [1], in [4], in data set [7] and in data set [9] was “Not Active” throughout.
Consider `CC1(C)O[C@@H]2C[C@H]3[C@@H]4CCC5=CC(=O)C=C[C@]5(C)[C@@]4(F)[C@@H](O)C[C@]3(C)[C@]2(C(=O)CO)O1` [TRIAMCINOLONE ACETONIDE], for which the IC50 result in data set [1], in data set [2], in [3], in data set [4], in data set [5] and in data set [6] was “Not Active” in each case. Further, the IC50 entry in [7], in [8] and in data set [9] was “Not Active” each time. Also, the Ki entry in [1], in data set [4], in data set [7] and in data set [9] was “Not Active” each time.
As to `NS(=O)(=O)c1cc2c(cc1Cl)NC(C(Cl)Cl)NS2(=O)=O` (stereo not drawn) [TRICHLORMETHIAZIDE], the IC50 result in data set [1], in data set [2], in [3], in [4], in data set [5] and in data set [6] was “Not Active” in each case. Further, the IC50 entry in [7], in data set [8] and in data set [9] was “Not Active” each time. Further, the Ki entry in data set [1], in data set [4], in data set [7] and in [9] was “Not Active” each time.
For the compound `Cc1c(C)c2c(c(C)c1O)CCC(C)(COc1ccc(CC3SC(=O)NC3=O)cc1)O2` (stereo not drawn) [TROGLITAZONE], the IC50 result in [1], in [2], in [3], in data set [4], in data set [5] and in data set [6] was “Not Active” throughout. In addition, the IC50 entry was “Not Active” in [7], 1240 nM in data set [8] (read-out: IC50) and “Not Active” in data set [9]. In addition, the Ki result in [1], in data set [4], in data set [7] and in data set [9] was “Not Active” in each case.
`N[C@@H]1[C@H]2CN(c3nc4c(cc3F)c(=O)c(C(=O)O)cn4-c3ccc(F)cc3F)C[C@@H]12` [TROVAFLOXACIN]: the IC50 result in [1], in data set [2], in data set [3], in data set [4], in [5] and in data set [6] was “Not Active” in each case. Moreover, the IC50 entry in data set [7], in data set [8] and in [9] was “Not Active” in each case. For the same compound, the Ki entry in data set [1], in [4], in data set [7] and in [9] was “Not Active” each time.
In the case of `N#CC(C#N)=Cc1ccc(O)c(O)c1` [TYRPHOSTIN 23], the IC50 entry in data set [1], in data set [2], in [3], in [4], in [5] and in data set [6] was “Not Active” in each case. Besides, the IC50 result in data set [7], in [8] and in data set [9] was “Not Active” each time. The Ki result in [1], in data set [4], in data set [7] and in [9] was “Not Active” in each case.
Take `CC[C@]1(O)C[C@H]2CN(CCc3c([nH]c4ccccc34)[C@@](C(=O)OC)(c3cc4c(cc3OC)N(C=O)[C@H]3[C@@](O)(C(=O)OC)[C@H](OC(C)=O)[C@]5(CC)C=CCN6CC[C@]43[C@@H]65)C2)C1` [VINCRISTINE]: the 50% inhibitory concentration (IC50) result in data set [1], in [2], in data set [3], in [4], in [5] and in data set [6] was “Not Active” throughout. Also, the IC50 entry in data set [7], in data set [8] and in data set [9] was “Not Active” each time. Besides, the Ki entry in data set [1], in data set [4], in data set [7] and in [9] was “Not Active” each time.

As usually defined, the IC50 is the concentration needed to halve the response being measured.
